Data: paper PMC8507260, “A2E-induced inflammation and angiogenesis in RPE cells in vitro are modulated by PPAR-α, -β/δ, -γ, and RXR antagonists and by norbixin” (Aging (Albany NY), 2021)

Key:
IL-18 = IL-18 mRNA expression by quantitative RT-PCR in porcine RPE cells; assay type: cell-based
Protocol: Pig eyes were obtained from a local slaughterhouse and transported to the laboratory in ice-cold Ringer solution. After removal of the anterior segment of the eye, the vitreous and neural retina was separated from the RPE and removed. The eyecup was washed twice with phosphate buffer saline (PBS), filled with trypsin (0.25% in PBS) and incubated at 37°C for 1.5 h. RPE cells were harvested by gently pipetting, centrifuged to remove trypsin and re-suspended in Dulbecco’s Modified Eagle Medium (DMEM) supplemented with 20% (v/v) foetal-calf serum (DMEM20%FCS) and 0.1% gentamycin. Cells were seeded into 60 mm diameter Petri dishes, cultured in an atmosphere of 5% CO2/95% air at 37°C, and supplied with fresh medium after 24 hours and 4 days in vitro. For experiments aimed at measuring mRNA or protein expression in RPE, cells were trypsinized after one week in culture and transferred to 24-well or 6-well plates at a density of 1.5 × 10^5 cells/cm^2 in DMEM2%FCS. Norbixin or agonists were added to the medium 24 h after seeding, and antagonists were added to the medium 24 h later. A2E treatment was performed during 19 h before cellular sample preparation. […]
Total RNA was extracted using the NucleoSpin® RNA kit according to manufacturer’s instructions. […] The relative mRNA expression was calculated using the comparative threshold method (Ct-method) with GAPDH for normalization. […]

PPAR-α = experiment: Transactivation of over-expressed PPAR-α, luciferase reporter in porcine RPE cells; assay type: cell-based, pig; details: for transactivation of over-expressed PPAR-α by the compound alone: vs DMSO control, A2E 20 μM, NBX increasing concentrations
Protocol: First, we evaluated the binding profile of A2E to all three isoforms of PPAR. […] Then the effects of A2E on the endogenous PPAR transactivation in porcine RPE cells were investigated by means of a luciferase assay. […] The level of transactivation of PPAR-α, -β/δ, or -γ isoforms by A2E was determined by co-transfection of porcine RPE cells with a plasmid expressing each of the full-length PPAR isoforms and a plasmid expressing luciferase under the control of the PPAR response element. […]. All usual chemicals, primers, and HX531 were from Sigma (St. Louis, MO, USA). Reagents for cell culture, transfection and quantitative RT-PCR were from Thermo Fisher Scientific (Waltham, MA, USA). RNA extraction NucleoSpin® RNA kit was from Macherey Nagel (Düren, Germany). ECL prime and PVDF membrane were from Amersham GE Healthcare (Buckinghamshire, UK). Primary antibodies against the following proteins were used: GAPDH (Santa Cruz Biotechnology, Inc, Dallas, TX, USA); pAKT, AKT, pERK and ERK (Cell Signaling, Danvers, MA, USA). Secondary antibodies were from Jackson ImmunoResearch (Cambridgeshire, UK). […] Cignal Pathway Reporter Assay Kits were from QIAGEN (Frederick, MD, USA). The Dual-Luciferase Reporter Assay System was purchased from Promega (Madison, WI, USA). pcDNA 3.1 (+)-PPARα and pcDNA 3.1 (+)-PPARβ/δ (pig sequence) were purchased from Genscript (Piscataway, NJ, USA). pCMV6-XL4-PPARγ (human sequence) was purchased from Origene (Rockville, MD, USA).
After one week in culture, cells were trypsinized and transferred to a 96-well plate at a density of 6 × 10^4 cells/cm^2 in DMEM2%FCS. The next day, cells were transfected using the Cignal Reporter Assay Kits for PPAR, RXR, AP-1 and NF-κB, according to the manufacturer’s specifications. To measure the specific activation of PPAR isoforms, cells were also co-transfected with PPAR-α, PPAR-β/δ or PPAR-γ expression vectors. Transfection was performed with Lipofectamine and Plus Reagent in serum-free medium. 3 h after the transfection, the medium was replaced and treatments with the molecules to assay were performed. Luciferase activity was measured the next day using the Dual-Luciferase Reporter Assay System. The measurements were performed with a luminometer (Infinite M1000 from Tecan, Mannedorf, Switzerland). Firefly: Renilla activity ratios were calculated for each condition and ratios from transcription factor-responsive reporter transfections were divided by ratios from negative control transfections to obtain relative luciferase unit, as described by the manufacturer. At least 3 independent transfections were performed in triplicate for each condition.

Structure (SMILES) | effect of the compound alone on IL-18 mRNA expression (IL-18; A2E 30 μM vs DMSO control) | transactivation of over-expressed PPAR-α by the compound alone (PPAR-α) | effect on IL-18 expression induced by A2E (IL-18; NBX 20 μM + A2E 30 μM, PPAR antagonists) | effect on over-expressed PPAR-α transactivation induced by A2E (PPAR-α; A2E 20 μM + NBX 20 μM) | inhibition of PPAR-α transactivation induced by GW9578 (PPAR-α; GW9578 at 10 nM, NBX 20 μM)
CC(C=CC1=C(C)CCCC1(C)C)=CC=CC(C)=Cc1cc(C=CC=C(C)C=CC2=C(C)CCCC2(C)C)cc[n+]1CCO [A2E, N-retinylidene-N-retinylethanolamine] | induced by A2E | induced the transactivation |  |  | 
CC(/C=C/C=C(C)/C=C/C(=O)O)=C\C=C\C=C(C)\C=C\C=C(C)\C=C\C(=O)O (stereo in doubt) [norbixin, 9’-cis-norbixin] |  | did not demonstrate any transactivation activity | not inhibited | fully abolished | did not inhibit significantly
